In brackets after ≈: the same amount, converted by molar mass.
Key:
Assay in all cases: in vitro antibacterial evaluation, MIC by broth dilution
Format in all cases: cell-based
[1] = system: Enterococcus sp.; conditions: broth dilution, 18 hours at 35° C.
Method in brief: (§1)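 MIC, the lowest antibiotic concentration preventing growth, was read across 64-0.06 μg/mL with 5×10^5 CFU/mL inoculum. Method followed NCCLS M7-A2 broth dilution using Mueller-Hinton II; Gram-positive strains covered recent methicillin-, penicillin- and/or vancomycin-resistant clinical isolates.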

[2] = system: Staphylococcus sp.; conditions: broth dilution, 18 hours at 35° C.; for MIC Staphylococcus aureus (GC 1131): strain GC 1131; for MIC Staphylococcus aureus (ATCC 29213): strain ATCC 29213; for MIC Staphylococcus aureus (GC 3051): strain GC 3051; for MIC Staphylococcus aureus (GC 3053): strain GC 3053; for MIC Staphylococcus aureus (GC 4541): strain GC 4541; for MIC Staphylococcus aureus (GC 4542): strain GC 4542; for MIC Staphylococcus aureus-SMITH (GC 4543): strain GC 4543; for MIC Staphylococcus aureus (GC 4544): strain GC 4544; for MIC Staphylococcus aureus (GC 4545): strain GC 4545; for MIC Staphylococcus haemolyticus (GC 4546): strain GC 4546; for MIC Coagulase Negative Staphylococcus (GC 4547): strain GC 4547; for MIC Coagulase Negative Staphylococcus (GC 4548): strain GC 4548; for MIC Coagulase Negative Staphylococcus (GC 4549): strain GC 4549; for MIC Coagulase Negative Staphylococcus (GC 4551): strain GC 4551; for MIC Coagulase Negative Staphylococcus (GC 6257): strain GC 6257
Method in brief: as §1

[3] = system: Streptococcus sp.; conditions: broth dilution, 18 hours at 35° C.
Method in brief: as §1

[4] = system: Escherichia coli; conditions: 18 hours at 35° C.

COc1ccc2cc(C3OCC4OC(OC5C(CO)OC(Oc6ccc(CC7NC(=O)C(C(C)c8ccccc8)NC(=O)CNC(=O)C(CO)NC(=O)C(CC8CNC(=N)N8C8OC(CO)C(O)C(O)C8O)NC(=O)C(CC8CNC(=N)N8)NC7=O)cc6)C(O)C5O)C(O)C(O)C4O3)ccc2c1 (stereo not shown) [Example 190]
MIC Enterococcus avium (GC 4558) [1]: 16 µg/mL (≈ 11.2 µM) | MIC Enterococcus faecalis (ATCC 29212) [1]: 32 µg/mL (≈ 22.4 µM) | MIC Enterococcus faecalis (GC 2242) [1]: 32 µg/mL (≈ 22.4 µM) | MIC Enterococcus faecalis (GC 2691) [1]: 32 µg/mL (≈ 22.4 µM) | MIC Enterococcus faecalis (GC 3059) [1]: 32 µg/mL (≈ 22.4 µM) | MIC Enterococcus faecalis (GC 4552) [1]: 32 µg/mL (≈ 22.4 µM) | MIC Enterococcus faecalis (GC 4553) [1]: 32 µg/mL (≈ 22.4 µM) | MIC Enterococcus faecalis (GC 4554) [1]: 32 µg/mL (≈ 22.4 µM) | MIC Enterococcus faecalis (GC 6189) [1]: 32 µg/mL (≈ 22.4 µM) | MIC Enterococcus faecium (GC 2243) [1]: 32 µg/mL (≈ 22.4 µM) | MIC Enterococcus faecium (GC 4556) [1]: 32 µg/mL (≈ 22.4 µM) | MIC Enterococcus faecium (GC 4557) [1]: 8 µg/mL (≈ 5.59 µM) | MIC Enterococcus faecalis (ATCC 29212) ([1]; inoculum 5×10^5 CFU/mL, strain ATCC 29212): 32 µg/mL (≈ 22.4 µM) | MIC Enterococcus faecalis (GC 2242) ([1]; inoculum 5×10^5 CFU/mL, strain GC 2242): 32 µg/mL (≈ 22.4 µM) | MIC Enterococcus faecium (GC 2243) ([1]; inoculum 5×10^5 CFU/mL, strain GC 2243): 32 µg/mL (≈ 22.4 µM) | MIC Enterococcus faecalis (GC 2691) ([1]; inoculum 5×10^5 CFU/mL, strain GC 2691): 32 µg/mL (≈ 22.4 µM) | MIC Enterococcus faecalis (GC 3059) ([1]; inoculum 5×10^5 CFU/mL, strain GC 3059): 32 µg/mL (≈ 22.4 µM) | MIC Enterococcus faecalis (GC 4552) ([1]; inoculum 5×10^5 CFU/mL, strain GC 4552): 32 µg/mL (≈ 22.4 µM) | MIC Enterococcus faecalis (GC 4553) ([1]; inoculum 5×10^5 CFU/mL, strain GC 4553): 32 µg/mL (≈ 22.4 µM) | MIC Enterococcus faecalis (GC 4554) ([1]; inoculum 5×10^5 CFU/mL, strain GC 4554): 32 µg/mL (≈ 22.4 µM) | MIC Enterococcus faecium (GC 4556) ([1]; inoculum 5×10^5 CFU/mL, strain GC 4556): 32 µg/mL (≈ 22.4 µM) | MIC Enterococcus faecium (GC 4557) ([1]; inoculum 5×10^5 CFU/mL, strain GC 4557): 8 µg/mL (≈ 5.59 µM) | MIC Enterococcus avium (GC 4558) ([1]; inoculum 5×10^5 CFU/mL, strain GC 4558): 16 µg/mL (≈ 11.2 µM) | MIC Enterococcus faecalis (GC 6189) ([1]; inoculum 5×10^5 CFU/mL, strain GC 6189): 32 µg/mL (≈ 22.4 µM) | MIC Staphylococcus aureus (GC 1131) ([2]; inoculum 5×10^5 CFU/mL): 16 µg/mL (≈ 11.2 µM) | MIC Staphylococcus aureus (ATCC 29213) [2]: 16 µg/mL (≈ 11.2 µM) | MIC Staphylococcus aureus (GC 1131) [2]: 16 µg/mL (≈ 11.2 µM) | MIC Staphylococcus aureus (GC 3051) [2]: 16 µg/mL (≈ 11.2 µM) | MIC Staphylococcus aureus (GC 3053) [2]: 16 µg/mL (≈ 11.2 µM) | MIC Staphylococcus aureus (GC 4541) [2]: 8 µg/mL (≈ 5.59 µM) | MIC Staphylococcus aureus (GC 4542) [2]: 4 µg/mL (≈ 2.79 µM) | MIC Staphylococcus aureus-SMITH (GC 4543) [2]: 4 µg/mL (≈ 2.79 µM) | MIC Staphylococcus aureus (GC 4544) [2]: 16 µg/mL (≈ 11.2 µM) | MIC Staphylococcus aureus (GC 4545) [2]: 16 µg/mL (≈ 11.2 µM) | MIC Staphylococcus haemolyticus (GC 4546) [2]: 8 µg/mL (≈ 5.59 µM) | MIC Coagulase Negative Staphylococcus (GC 4547) [2]: 8 µg/mL (≈ 5.59 µM) | MIC Coagulase Negative Staphylococcus (GC 4548) [2]: 8 µg/mL (≈ 5.59 µM) | MIC Coagulase Negative Staphylococcus (GC 4549) [2]: 8 µg/mL (≈ 5.59 µM) | MIC Coagulase Negative Staphylococcus (GC 4551) [2]: 16 µg/mL (≈ 11.2 µM) | MIC Coagulase Negative Staphylococcus (GC 6257) [2]: 8 µg/mL (≈ 5.59 µM) | MIC Streptococcus agalactiae (GC 4564) [3]: 16 µg/mL (≈ 11.2 µM) | MIC Streptococcus pneumoniae (ATCC 6301) [3]: 8 µg/mL (≈ 5.59 µM) | MIC Streptococcus pneumoniae (GC 1894) [3]: 4 µg/mL (≈ 2.79 µM) | MIC Streptococcus pneumoniae (GC 4565) [3]: 8 µg/mL (≈ 5.59 µM) | MIC Streptococcus pyogenes (GC 4563) [3]: 16 µg/mL (≈ 11.2 µM) | MIC Streptococcus pneumoniae (ATCC 6301) ([3]; inoculum 5×10^5 CFU/mL, strain ATCC 6301): 8 µg/mL (≈ 5.59 µM) | MIC Streptococcus pneumoniae (GC 1894) ([3]; inoculum 5×10^5 CFU/mL, strain GC 1894): 4 µg/mL (≈ 2.79 µM) | MIC Streptococcus pyogenes (GC 4563) ([3]; inoculum 5×10^5 CFU/mL, strain GC 4563): 16 µg/mL (≈ 11.2 µM) | MIC Streptococcus agalactiae (GC 4564) ([3]; inoculum 5×10^5 CFU/mL, strain GC 4564): 16 µg/mL (≈ 11.2 µM) | MIC Streptococcus pneumoniae (GC 4565) ([3]; inoculum 5×10^5 CFU/mL, strain GC 4565): 8 µg/mL (≈ 5.59 µM) | MIC Escherichia coli (ATCC 25922) [4]: >64 µg/mL | MIC Escherichia coli (GC 4559) [4]: >64 µg/mL | MIC Escherichia coli (GC 4560) [4]: 16 µg/mL (≈ 11.2 µM)

CC(c1ccccc1)C1NC(=O)CNC(=O)C(CO)NC(=O)C(C(O)C2CNC(=N)N2C2OC(CO)C(O)C(O)C2O)NC(=O)C(C(O)C2CNC(=N)N2)NC(=O)C(Cc2ccc3oc(-c4ccc(C(=O)O)cc4)nc3c2)NC1=O (stereo not drawn) [Example 25, Cyclo[3-[2-(4-carboxyphenyl)-1,3-benzoxazol-5-yl]alanyl-3-(2-iminoimidazolidin-4-yl)seryl-3-(3-hexopyranosyl-2-iminoimidazolidin-4-yl)serylserylglycyl-β-methylphenylalanyl]]
MIC Enterococcus faecalis (ATCC 29212) ([1]; strain ATCC 29212): >128 µg/mL | MIC Enterococcus faecalis (GC 2242) ([1]; strain GC 2242): >128 µg/mL | MIC Enterococcus faecium (GC 2243) ([1]; strain GC 2243): >128 µg/mL | MIC Enterococcus faecalis (GC 2691) ([1]; strain GC 2691): >128 µg/mL | MIC Enterococcus faecalis (GC 3059) ([1]; strain GC 3059): >128 µg/mL | MIC Enterococcus faecalis (GC 4552) ([1]; strain GC 4552): >128 µg/mL | MIC Enterococcus faecalis (GC 4553) ([1]; strain GC 4553): >128 µg/mL | MIC Enterococcus faecalis (GC 4554) ([1]; strain GC 4554): >128 µg/mL | MIC Enterococcus faecium (GC 4556) ([1]; strain GC 4556): >128 µg/mL | MIC Enterococcus faecium (GC 4557) ([1]; strain GC 4557): 128 µg/mL (≈ 115 µM) | MIC Enterococcus avium (GC 4558) ([1]; strain GC 4558): 128 µg/mL (≈ 115 µM) | MIC Enterococcus faecalis (GC 6189) ([1]; strain GC 6189): >128 µg/mL | MIC Staphylococcus aureus (ATCC 29213) [2]: >128 µg/mL | MIC Staphylococcus aureus (GC 1131) [2]: >128 µg/mL | MIC Staphylococcus aureus (GC 3051) [2]: >128 µg/mL | MIC Staphylococcus aureus (GC 3053) [2]: >128 µg/mL | MIC Staphylococcus aureus (GC 4541) [2]: >128 µg/mL | MIC Staphylococcus aureus (GC 4542) [2]: >128 µg/mL | MIC Staphylococcus aureus-SMITH (GC 4543) [2]: >128 µg/mL | MIC Staphylococcus aureus (GC 4544) [2]: >128 µg/mL | MIC Staphylococcus aureus (GC 4545) [2]: >128 µg/mL | MIC Staphylococcus haemolyticus (GC 4546) [2]: >128 µg/mL | MIC Coagulase Negative Staphylococcus (GC 4547) [2]: >128 µg/mL | MIC Coagulase Negative Staphylococcus (GC 4548) [2]: >128 µg/mL | MIC Coagulase Negative Staphylococcus (GC 4549) [2]: >128 µg/mL | MIC Coagulase Negative Staphylococcus (GC 4551) [2]: >128 µg/mL | MIC Coagulase Negative Staphylococcus (GC 6257) [2]: >128 µg/mL | MIC Streptococcus pneumoniae (ATCC 6301) ([3]; strain ATCC 6301): >128 µg/mL | MIC Streptococcus pneumoniae (GC 1894) ([3]; strain GC 1894): 128 µg/mL (≈ 115 µM) | MIC Streptococcus pyogenes (GC 4563) ([3]; strain GC 4563): >128 µg/mL | MIC Streptococcus agalactiae (GC 4564) ([3]; strain GC 4564): >128 µg/mL | MIC Streptococcus pneumoniae (GC 4565) ([3]; strain GC 4565): >128 µg/mL | MIC Escherichia coli (ATCC 25922) ([4]; strain ATCC 25922, broth dilution): >128 µg/mL | MIC Escherichia coli (GC 4559) ([4]; strain GC 4559, broth dilution): >128 µg/mL | MIC Escherichia coli (GC 4560) ([4]; strain GC 4560, broth dilution): >128 µg/mL
